The values that follow come from ChEMBL document CHEMBL6083286, “Discovery of ERD-12310A as an Exceptionally Potent and Orally Efficacious PROTAC Degrader of Estrogen Receptor α (ERα)” (J Med Chem, 2024).

The nature of data set [1]: Drug concentration in female Sprague-Dawley rat plasma at 3 mg/kg, po measured at 1 hr by LC-MS analysis. Format: ADME, organism-based.
Data set [2] in a line: Drug concentration in female Sprague-Dawley rat plasma at 3 mg/kg, po measured at 3 hrs by LC-MS analysis. The format is ADME, organism-based.
The target in data set [3] is T1, Protein cereblon/Estrogen receptor (Homo sapiens, UniProt P03372+Q96SW2). The experiment in a line: PROTAC activity at CRBN/ERalpha in human MCF7 cells assessed as reduction in ERalpha protein level measured after 12 hrs by Western blot analysis. The format is cell-based. (In general: Immunoblotting shows a protein as a band on a membrane.)
Target sequence in this assay (P03372 whole entry): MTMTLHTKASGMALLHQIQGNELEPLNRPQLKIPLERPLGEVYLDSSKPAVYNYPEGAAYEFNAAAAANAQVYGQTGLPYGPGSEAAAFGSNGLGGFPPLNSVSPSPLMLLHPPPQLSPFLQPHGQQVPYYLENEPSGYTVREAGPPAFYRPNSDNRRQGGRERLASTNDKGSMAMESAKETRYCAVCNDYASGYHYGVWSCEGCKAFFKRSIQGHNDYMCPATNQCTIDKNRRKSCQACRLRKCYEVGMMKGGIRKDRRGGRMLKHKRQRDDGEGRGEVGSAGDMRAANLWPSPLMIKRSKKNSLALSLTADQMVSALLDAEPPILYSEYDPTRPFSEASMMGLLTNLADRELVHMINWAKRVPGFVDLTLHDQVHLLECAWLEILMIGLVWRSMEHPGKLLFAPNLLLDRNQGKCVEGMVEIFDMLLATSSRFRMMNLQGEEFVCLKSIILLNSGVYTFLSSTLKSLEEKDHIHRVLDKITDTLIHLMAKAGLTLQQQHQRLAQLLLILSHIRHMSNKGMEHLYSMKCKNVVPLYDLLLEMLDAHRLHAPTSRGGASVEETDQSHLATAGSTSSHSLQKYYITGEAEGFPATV
Target sequence in this assay (Q96SW2 whole entry): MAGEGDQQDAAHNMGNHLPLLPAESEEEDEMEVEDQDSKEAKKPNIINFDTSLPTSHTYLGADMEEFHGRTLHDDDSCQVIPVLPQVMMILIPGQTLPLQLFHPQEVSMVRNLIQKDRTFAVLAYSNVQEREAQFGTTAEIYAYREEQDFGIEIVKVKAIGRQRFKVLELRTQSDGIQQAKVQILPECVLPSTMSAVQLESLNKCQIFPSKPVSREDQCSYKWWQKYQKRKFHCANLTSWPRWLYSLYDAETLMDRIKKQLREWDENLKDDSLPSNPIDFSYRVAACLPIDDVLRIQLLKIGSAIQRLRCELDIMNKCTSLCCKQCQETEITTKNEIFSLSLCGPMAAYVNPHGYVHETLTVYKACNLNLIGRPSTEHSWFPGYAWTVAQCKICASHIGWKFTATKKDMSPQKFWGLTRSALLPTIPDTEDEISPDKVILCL
The target of data set [4] is T1, Protein cereblon/Estrogen receptor. In words: PROTAC activity at CRBN/ERalpha in human MCF7 cells assessed as reduction in ERalpha protein level measured after 12 hrs by Western blot analysis relative to control. Format: cell-based.
Target sequence in this assay (P03372 whole entry, looked up): as the sequence (P03372 whole entry) above
Target sequence in this assay (Q96SW2 whole entry, looked up): as the sequence (Q96SW2 whole entry) above
Data set [5] in a line: Drug concentration in female Sprague-Dawley rat plasma at 3 mg/kg, po measured at 6 hrs by LC-MS analysis. The format is ADME, organism-based.
Data set [6] can be described thus: Drug concentration in female Sprague-Dawley rat plasma at 3 mg/kg, po measured at 24 hrs by LC-MS analysis. The format is ADME, organism-based.
The test system of data set [7] is T47D. The experiment in a line: PROTAC activity at CRBN/ ERalpha D538G mutant in human T47D cells assessed as reduction in ERalpha protein level at 10 to 100 nM measured at 7 hrs by Western blot analysis. The format is cell-based. On the set-up: scale not given: the % may be the effect or the level left. The following applies: dose 10-100 nM.
Data set [8] has as its system T47D. The experiment in a line: PROTAC activity at CRBN/ ERalpha Y537S mutant in human T47D cells assessed as reduction in ERalpha protein level at 10 to 100 nM measured at 7 hrs by Western blot analysis. Format: cell-based. Further details: scale not given: the % may be the effect or the level left. Particulars: dose 10-100 nM.
In data set [9] the target is T1, Protein cereblon/Estrogen receptor. The experiment in a line: PROTAC activity at CRBN/wild type ERalpha in human T47D cells assessed as reduction in ERalpha protein level at 10 to 100 nM measured at 7 hrs by Western blot analysis. The format is cell-based. Particulars: dose 10-100 nM.
Target sequence in this assay (P03372 whole entry, looked up): as the sequence (P03372 whole entry) above
Target sequence in this assay (Q96SW2 whole entry, looked up): as the sequence (Q96SW2 whole entry) above
The test system of another data set is MCF7. In words: Antiproliferative activity against human MCF7 cells assessed as cell growth inhibition incubated for 4 days by crystal violet staining based assay. The following applies: time 4.0 day. Format: functional.
The nature of data set [10]: Metabolic stability rat liver microsome assessed as half life. Particulars: microsomes. Format: ADME. A general note: Liver microsomes are a subcellular fraction often used to study metabolism.
Data set [11] is described as follows: Metabolic stability mouse liver microsome assessed as half life. The format is ADME. Particulars: microsomes.
Data set [12] is described as follows: Metabolic stability human liver microsome assessed as half life. The following applies: microsomes. Format: ADME.
A short description of data set [13]: Stability in human plasma assessed as half life. Format: ADME, cell-free.
Data set [14] is described as follows: Stability in rat plasma assessed as half life. The format is ADME, cell-free.
The nature of data set [15]: Stability in mouse plasma assessed as half life. The format is ADME, cell-free.
Another data set has as its target Protein cereblon (Homo sapiens, UniProt Q96SW2). In words: Binding affinity to wild type GST-tagged human CRBN by HTRF assay. For orientation: TR-FRET usually uses a lanthanide donor and a delayed reading to cut background.
Data set [16] deals with T1, Protein cereblon/Estrogen receptor. The experiment in a line: PROTAC activity at CRBN/ERalpha in human MCF7 cells assessed as effect on GSPT1 level at 100 nM measured for 5 hrs by Western blot analysis. The format is cell-based.
Target sequence in this assay (P03372 whole entry, looked up): as the sequence (P03372 whole entry) above
Target sequence in this assay (Q96SW2 whole entry, looked up): as the sequence (Q96SW2 whole entry) above

pIC50: −log10 of the molar value. The source made the active and inactive calls. The calls are words filed in the database; no cut-off is given here.

Protein cereblon, sequence (Q96SW2 whole entry): as above

Broadly, the Emax is the maximal effect, on the per cent scale that the assay sets. `O=C1CC[C@H](N2Cc3c(ccc4c3OCC43CCN(CC(=O)N4CCC5(CC4)CN(c4ccc([C@@H]6c7ccc(O)cc7CC[C@@H]6c6ccccc6)cc4)C5)CC3)C2=O)C(=O)N1`: the concentration at 1 h in data set [1] was found to be 32 ng/mL. Further, in data set [2], the concentration at 3 h worked out at 26 ng/mL. In addition, the DC50 in [3] was determined as 0.253 nM. Moreover, in data set [4], the Emax was found to be 102%. In addition, in data set [5], the concentration at 6 h turned out to be 17 ng/mL. The same compound gave a concentration at 24 h in data set [6] of less than 5 ng/mL.
Regarding `O=C1CC[C@H](N2Cc3cc(N4CCN(CC5CCN(c6ccc([C@@H]7c8ccc(O)cc8CC[C@@H]7c7ccccc7)cc6)CC5)CC4)ccc3C2=O)C(=O)N1` [VEPDEGESTRANT], the Activity with T47D [7] and with T47D [8] was greater than 80% each time.
Compound `O=C1CC[C@H](N2Cc3c(ccc4c3OCC43CCN(C(=O)CN4CCC5(CC4)CN(c4ccc([C@@H]6c7ccc(O)cc7CC[C@@H]6c6ccccc6)cc4)C5)CC3)C2=O)C(=O)N1` had a concentration at 1 h in data set [1] of 16 ng/mL. Also, the concentration at 3 h in data set [2] is 13 ng/mL. Also, the DC50 in data set [3] is 0.034 nM. For the same compound, the Emax in [4] worked out at 96%. Besides, the concentration at 6 h in data set [5] came out at 9 ng/mL. In data set [6], the concentration at 24 h is less than 5 ng/mL.
Consider `CN(C)C[C@@H]1CCC2(CCN(c3ccc([C@@H]4c5ccc(O)cc5CC[C@@H]4c4ccccc4)cc3)CC2)OC1`, for which the result (in the data set with T47D [7]; in data set [9]; in the data set on T47D [8]) was inactive. In addition, in the data set with MCF7, the result was Active.
Take `O=C1CC[C@H](N2Cc3c(ccc4c3OCC43CCN(CC(=O)N4CC5(CCN(c6ccc([C@@H]7c8ccc(O)cc8CC[C@@H]7c7ccccc7)cc6)CC5)C4)CC3)C2=O)C(=O)N1`: the concentration at 1 h in [1] came out at 9 ng/mL. The concentration at 3 h in data set [2] is less than 5 ng/mL. Besides, the DC50 in data set [3] amounted to 0.0341 nM. For the same compound, the t1/2 in [10] is 0.817 h; in data set [11], 0.583 h; in data set [12], greater than 1 h. Also, the Emax in data set [4] stood at 102%. The concentration at 6 h in data set [5] is less than 5 ng/mL. This compound also displayed a concentration at 24 h in data set [6] of less than 5 ng/mL.
For orientation: pIC50 means the negative decadic logarithm of the IC50, by convention in mol/L. As to `O=C1CC[C@H](N2Cc3c(ccc4c3OCC43CCNCC3)C2=O)C(=O)N1`, the t1/2 in [13], in [10], in data set [14], in data set [15] and in data set [11] was greater than 1 h each time. This compound also gave a pIC50 at Protein cereblon of 6.64.
Turning to `CCNCCc1ccc(CN(CC)c2cc(OC)ccc2[C@@H]2CCc3cc(O)ccc3C2)cc1`, the result (in the data set on T47D [7]; in [9]; in the data set on T47D [8]) was Active.
In the case of `O=C1CCC(N2Cc3c(CCCCCNC(=O)[C@@H]4NC5(CCCCC5)[C@@]5(C(=O)Nc6cc(Cl)ccc65)[C@H]4c4cccc(Cl)c4F)cccc3C2=O)C(=O)N1` (stereo partly specified), the outcome in data set [16] was Active.
Take `O=C1CCC(N2Cc3c(ccc4c3OCC43CCN(CC4COC5(CCN(c6ccc([C@@H]7c8ccc(O)cc8CC[C@@H]7c7ccccc7)cc6)CC5)C4)CC3)C2=O)C(=O)N1` (stereo partly specified): in data set [3], the DC50 was 0.041 nM. For the same compound, in [4], the Emax was found to be 79%.
In the same order, the values of `O=C1CC[C@H](N2Cc3c(ccc4c3OCC43CCN(CC(=O)N4CC5(C4)CN(c4ccc([C@@H]6c7ccc(O)cc7CC[C@@H]6c6ccccc6)cc4)C5)CC3)C2=O)C(=O)N1` are 0.0142 nM and 99%.
For `Oc1ccc2c(c1)CC[C@H](c1ccccc1)[C@@H]2c1ccc(OCCN2CCCC2)cc1`, the outcome (in the data set with T47D [7]; in [9]; in the data set on T47D [8]) was inactive.
In the case of `CN1C(=O)CC[C@H](N2Cc3c(ccc4c3OCC43CCN(C[C@@H]4CCC5(CCN(c6ccc([C@@H]7c8ccc(O)cc8CC[C@@H]7c7ccccc7)cc6)CC5)OC4)CC3)C2=O)C1=O`, the outcome (in the data set with T47D [7]; in data set [9]; with T47D [8]; at Protein cereblon) was inactive. Further, the result with MCF7 was Active.
On to `O=C1CC[C@H](N2Cc3c(ccc4c3OCC43CCN(CCCCCC4CCN(c5ccc([C@@H]6c7ccc(O)cc7CC[C@@H]6c6ccccc6)cc5)CC4)CC3)C2=O)C(=O)N1`, for which, in data set [3], the DC50 was 0.42 nM. Moreover, the Emax in [4] came to 105%.
For `O=C1CC[C@H](N2Cc3c(ccc4c3OCC43CCN(CC4CCC5(CCN(c6ccc([C@@H]7c8ccc(O)cc8CC[C@@H]7c7ccccc7)cc6)CC5)O4)CC3)C2=O)C(=O)N1` (stereo partly specified), in that order: 0.604 nM and 86%.
`O=C1CC[C@H](N2Cc3c(ccc4c3OCC43CCN(CCCC4CCN(c5ccc([C@@H]6c7ccc(O)cc7CC[C@@H]6c6ccccc6)cc5)CC4)CC3)C2=O)C(=O)N1`: the DC50 in data set [3] came out at 0.038 nM. Also, the Emax in data set [4] stood at 98%.
For `O=C1CC[C@H](N2Cc3c(ccc4c3OCC43CCN(CCCCC4CCN(c5ccc([C@@H]6c7ccc(O)cc7CC[C@@H]6c6ccccc6)cc5)CC4)CC3)C2=O)C(=O)N1`, in that order: 0.031 nM and 105%.
Turning to `O=C1CC[C@H](N2Cc3c(ccc4c3OCC43CCN(C(=O)CC4CCN(c5ccc([C@@H]6c7ccc(O)cc7CC[C@@H]6c6ccccc6)cc5)CC4)CC3)C2=O)C(=O)N1`, the DC50 in data set [3] is 0.025 nM. Further, the Emax in data set [4] was determined as 86%.
In the same order, the values of `O=C1CC[C@H](N2Cc3c(ccc4c3OCC43CCN(CC4CCC5(CCN(c6ccc([C@@H]7c8ccc(O)cc8CC[C@@H]7c7ccccc7)cc6)CC5)C4)CC3)C2=O)C(=O)N1` (stereo partly specified) are 0.126 nM and 92%.
In the case of `O=C1CC[C@H](N2Cc3c(ccc4c3OCC43CCN(C(=O)CN4CC5(C4)CN(c4ccc([C@@H]6c7ccc(O)cc7CC[C@@H]6c6ccccc6)cc4)C5)CC3)C2=O)C(=O)N1`, the DC50 in data set [3] was 0.011 nM. The Emax in [4] stood at 99%.
For `O=C1CC[C@H](N2Cc3c(ccc4c3OCC43CCN(CC4CCC5(CCN(c6ccc([C@@H]7c8ccc(O)cc8CC[C@@H]7c7ccccc7)cc6)CC5)OC4)CC3)C2=O)C(=O)N1` (stereo partly specified), in that order: 0.139 nM and 99%.
For `O=C1CC[C@H](N2Cc3c(ccc4c3OCC43CCN(C(=O)CN4CCC5(CCN(c6ccc([C@@H]7c8ccc(O)cc8CC[C@@H]7c7ccccc7)cc6)CC5)C4)CC3)C2=O)C(=O)N1`, in that order: 0.029 nM and 107%.
In the same order, the values of `O=C1CC[C@H](N2Cc3c(ccc4c3OCC43CCN(CC(=O)N4CCC5(CC4)CCN(c4ccc([C@@H]6c7ccc(O)cc7CC[C@@H]6c6ccccc6)cc4)CC5)CC3)C2=O)C(=O)N1` are 0.0363 nM and 105%.
As to `O=C1CC[C@H](N2Cc3c(ccc4c3OCC43CCN(CC(=O)N4CCCC5(CCN(c6ccc([C@@H]7c8ccc(O)cc8CC[C@@H]7c7ccccc7)cc6)CC5)C4)CC3)C2=O)C(=O)N1`, the DC50 in data set [3] worked out at 0.0288 nM. For the same compound, in data set [4], the Emax worked out at 99%.
